Results published in the supplement of paper PMC8882468.
± gives the standard deviation of the averaged measurements.

Each compound was assayed on HCI-005.E2 (organoid from a breast cancer xenograft with a HER2-positive history) (assay: CTG-3D luminescence at 96 h relative to day-0 seeding control (ratio to day 0); higher = more growth / less cytotoxicity; PDxO 3D drug screen, 96 h, CTG-3D normalised to day-0 seeding control.). Details: 12.5 pM.

Structure (SMILES) | CTG-3D luminescence at 96 h
NC1(C(=O)N[C@@H](CCO)c2ccc(Cl)cc2)CCN(c2nc[nH]c3nccc2-3)CC1 [capivasertib] | 1.64 ± 0.6
CC(C)n1nc(-c2ccc3oc(N)nc3c2)c2c(N)ncnc21 [sapanisertib] | 2.06 ± 0.39
O=C(c1ccc(F)c(F)c1Nc1ccc(I)cc1F)N1CC(O)([C@@H]2CCCCN2)C1 [cobimetinib] | 1.55 ± 0.54
C[C@H](NC(=O)CCC(F)(F)F)C(=O)N[C@@H]1C(=O)N(CCO)c2ncccc2-c2ccccc21 [crenigacestat] | 1.59 ± 0.68
Cc1cc(Nc2ncc(Cl)c(Nc3ccccc3S(=O)(=O)C(C)C)n2)c(OC(C)C)cc1C1CCNCC1 [ceritinib] | 1.54 ± 0.21
CS(=O)(=O)c1ccc(C(=O)Nc2ccc(Cl)c(-c3ccccn3)c2)c(Cl)c1 [vismodegib] | 1.47 ± 0.03
NC(=O)c1cccc2cn(-c3ccc([C@@H]4CCCNC4)cc3)nc12 [niraparib] | 1.22 ± 0.35
Cc1cc(Nc2ncnc3ccc(NC4=NC(C)(C)CO4)cc23)ccc1Oc1ccn2ncnc2c1 [tucatinib] | 1.56 ± 0.42
CCN(c1cc(C#CCN2CCOCC2)cc(C(=O)NCc2c(C)cc(C)[nH]c2=O)c1C)[C@H]1CC[C@H](N(C)CCOC)CC1 | 1.1 ± 0.23

Same assay, conditions: 0.00025 µM

Structure (SMILES) | CTG-3D luminescence at 96 h
NC1(C(=O)N[C@@H](CCO)c2ccc(Cl)cc2)CCN(c2nc[nH]c3nccc2-3)CC1 [capivasertib] | 1.67 ± 0.41
CC(C)n1nc(-c2ccc3oc(N)nc3c2)c2c(N)ncnc21 [sapanisertib] | 2.01 ± 0.56
O=C(c1ccc(F)c(F)c1Nc1ccc(I)cc1F)N1CC(O)([C@@H]2CCCCN2)C1 [cobimetinib] | 1.65 ± 0.22
C[C@H](NC(=O)CCC(F)(F)F)C(=O)N[C@@H]1C(=O)N(CCO)c2ncccc2-c2ccccc21 [crenigacestat] | 1.76 ± 0.42
Cc1cc(Nc2ncc(Cl)c(Nc3ccccc3S(=O)(=O)C(C)C)n2)c(OC(C)C)cc1C1CCNCC1 [ceritinib] | 1.76 ± 0.44
CS(=O)(=O)c1ccc(C(=O)Nc2ccc(Cl)c(-c3ccccn3)c2)c(Cl)c1 [vismodegib] | 1.38 ± 0.22
NC(=O)c1cccc2cn(-c3ccc([C@@H]4CCCNC4)cc3)nc12 [niraparib] | 1.61 ± 0.12
Cc1cc(Nc2ncnc3ccc(NC4=NC(C)(C)CO4)cc23)ccc1Oc1ccn2ncnc2c1 [tucatinib] | 1.61 ± 0.47
CCN(c1cc(C#CCN2CCOCC2)cc(C(=O)NCc2c(C)cc(C)[nH]c2=O)c1C)[C@H]1CC[C@H](N(C)CCOC)CC1 | 1.52 ± 0.39

Same assay, conditions: 0.005 µM

Structure (SMILES) | CTG-3D luminescence at 96 h
NC1(C(=O)N[C@@H](CCO)c2ccc(Cl)cc2)CCN(c2nc[nH]c3nccc2-3)CC1 [capivasertib] | 1.86 ± 0.38
CC(C)n1nc(-c2ccc3oc(N)nc3c2)c2c(N)ncnc21 [sapanisertib] | 1.9 ± 0.47
O=C(c1ccc(F)c(F)c1Nc1ccc(I)cc1F)N1CC(O)([C@@H]2CCCCN2)C1 [cobimetinib] | 1.32 ± 0.1
C[C@H](NC(=O)CCC(F)(F)F)C(=O)N[C@@H]1C(=O)N(CCO)c2ncccc2-c2ccccc21 [crenigacestat] | 1.84 ± 0.24
Cc1cc(Nc2ncc(Cl)c(Nc3ccccc3S(=O)(=O)C(C)C)n2)c(OC(C)C)cc1C1CCNCC1 [ceritinib] | 1.79 ± 0.51
CS(=O)(=O)c1ccc(C(=O)Nc2ccc(Cl)c(-c3ccccn3)c2)c(Cl)c1 [vismodegib] | 1.47 ± 0.4
NC(=O)c1cccc2cn(-c3ccc([C@@H]4CCCNC4)cc3)nc12 [niraparib] | 1.3 ± 0.14
Cc1cc(Nc2ncnc3ccc(NC4=NC(C)(C)CO4)cc23)ccc1Oc1ccn2ncnc2c1 [tucatinib] | 2.08 ± 0.23
CCN(c1cc(C#CCN2CCOCC2)cc(C(=O)NCc2c(C)cc(C)[nH]c2=O)c1C)[C@H]1CC[C@H](N(C)CCOC)CC1 | 1.38 ± 0.23

Same assay, conditions: 0.1 µM

Structure (SMILES) | CTG-3D luminescence at 96 h
NC1(C(=O)N[C@@H](CCO)c2ccc(Cl)cc2)CCN(c2nc[nH]c3nccc2-3)CC1 [capivasertib] | 2.16 ± 0.37
CC(C)n1nc(-c2ccc3oc(N)nc3c2)c2c(N)ncnc21 [sapanisertib] | 0.62 ± 0.35
O=C(c1ccc(F)c(F)c1Nc1ccc(I)cc1F)N1CC(O)([C@@H]2CCCCN2)C1 [cobimetinib] | 1.05 ± 0.23
C[C@H](NC(=O)CCC(F)(F)F)C(=O)N[C@@H]1C(=O)N(CCO)c2ncccc2-c2ccccc21 [crenigacestat] | 1.57 ± 0.45
Cc1cc(Nc2ncc(Cl)c(Nc3ccccc3S(=O)(=O)C(C)C)n2)c(OC(C)C)cc1C1CCNCC1 [ceritinib] | 1.7 ± 0.32
CS(=O)(=O)c1ccc(C(=O)Nc2ccc(Cl)c(-c3ccccn3)c2)c(Cl)c1 [vismodegib] | 1.57 ± 0.17
NC(=O)c1cccc2cn(-c3ccc([C@@H]4CCCNC4)cc3)nc12 [niraparib] | 1.62 ± 0.44
Cc1cc(Nc2ncnc3ccc(NC4=NC(C)(C)CO4)cc23)ccc1Oc1ccn2ncnc2c1 [tucatinib] | 2 ± 0.3
CCN(c1cc(C#CCN2CCOCC2)cc(C(=O)NCc2c(C)cc(C)[nH]c2=O)c1C)[C@H]1CC[C@H](N(C)CCOC)CC1 | 1.82 ± 0.34

Same assay, conditions: 1 µM

Structure (SMILES) | CTG-3D luminescence at 96 h
NC1(C(=O)N[C@@H](CCO)c2ccc(Cl)cc2)CCN(c2nc[nH]c3nccc2-3)CC1 [capivasertib] | 1.02 ± 0.3
CC(C)n1nc(-c2ccc3oc(N)nc3c2)c2c(N)ncnc21 [sapanisertib] | 0.362 ± 0.2
O=C(c1ccc(F)c(F)c1Nc1ccc(I)cc1F)N1CC(O)([C@@H]2CCCCN2)C1 [cobimetinib] | 0.579 ± 0.038
C[C@H](NC(=O)CCC(F)(F)F)C(=O)N[C@@H]1C(=O)N(CCO)c2ncccc2-c2ccccc21 [crenigacestat] | 1.33 ± 0.45
Cc1cc(Nc2ncc(Cl)c(Nc3ccccc3S(=O)(=O)C(C)C)n2)c(OC(C)C)cc1C1CCNCC1 [ceritinib] | 1.44 ± 0.19
CS(=O)(=O)c1ccc(C(=O)Nc2ccc(Cl)c(-c3ccccn3)c2)c(Cl)c1 [vismodegib] | 1.45 ± 0.24
NC(=O)c1cccc2cn(-c3ccc([C@@H]4CCCNC4)cc3)nc12 [niraparib] | 1.51 ± 0.31
Cc1cc(Nc2ncnc3ccc(NC4=NC(C)(C)CO4)cc23)ccc1Oc1ccn2ncnc2c1 [tucatinib] | 1.47 ± 0.29
CCN(c1cc(C#CCN2CCOCC2)cc(C(=O)NCc2c(C)cc(C)[nH]c2=O)c1C)[C@H]1CC[C@H](N(C)CCOC)CC1 | 1.14 ± 0.16

Same assay, conditions: 10 µM

Structure (SMILES) | CTG-3D luminescence at 96 h
NC1(C(=O)N[C@@H](CCO)c2ccc(Cl)cc2)CCN(c2nc[nH]c3nccc2-3)CC1 [capivasertib] | 0.59 ± 0.089
CC(C)n1nc(-c2ccc3oc(N)nc3c2)c2c(N)ncnc21 [sapanisertib] | 0.282 ± 0.079
O=C(c1ccc(F)c(F)c1Nc1ccc(I)cc1F)N1CC(O)([C@@H]2CCCCN2)C1 [cobimetinib] | 0.594 ± 0.092
C[C@H](NC(=O)CCC(F)(F)F)C(=O)N[C@@H]1C(=O)N(CCO)c2ncccc2-c2ccccc21 [crenigacestat] | 1.42 ± 0.29
Cc1cc(Nc2ncc(Cl)c(Nc3ccccc3S(=O)(=O)C(C)C)n2)c(OC(C)C)cc1C1CCNCC1 [ceritinib] | 0.347 ± 0.25
CS(=O)(=O)c1ccc(C(=O)Nc2ccc(Cl)c(-c3ccccn3)c2)c(Cl)c1 [vismodegib] | 1.3 ± 0.21
NC(=O)c1cccc2cn(-c3ccc([C@@H]4CCCNC4)cc3)nc12 [niraparib] | 1.05 ± 0.24
Cc1cc(Nc2ncnc3ccc(NC4=NC(C)(C)CO4)cc23)ccc1Oc1ccn2ncnc2c1 [tucatinib] | 1.53 ± 0.18
CCN(c1cc(C#CCN2CCOCC2)cc(C(=O)NCc2c(C)cc(C)[nH]c2=O)c1C)[C@H]1CC[C@H](N(C)CCOC)CC1 | 1.22 ± 0.23

Same assay, conditions: 100 µM

Structure (SMILES) | CTG-3D luminescence at 96 h
NC1(C(=O)N[C@@H](CCO)c2ccc(Cl)cc2)CCN(c2nc[nH]c3nccc2-3)CC1 [capivasertib] | 0.467 ± 0.16
CC(C)n1nc(-c2ccc3oc(N)nc3c2)c2c(N)ncnc21 [sapanisertib] | 0.0263 ± 0.0063
O=C(c1ccc(F)c(F)c1Nc1ccc(I)cc1F)N1CC(O)([C@@H]2CCCCN2)C1 [cobimetinib] | 0.00269 ± 0.0047
C[C@H](NC(=O)CCC(F)(F)F)C(=O)N[C@@H]1C(=O)N(CCO)c2ncccc2-c2ccccc21 [crenigacestat] | 1.19 ± 0.29
Cc1cc(Nc2ncc(Cl)c(Nc3ccccc3S(=O)(=O)C(C)C)n2)c(OC(C)C)cc1C1CCNCC1 [ceritinib] | 0.0328 ± 0.061
CS(=O)(=O)c1ccc(C(=O)Nc2ccc(Cl)c(-c3ccccn3)c2)c(Cl)c1 [vismodegib] | 0.318 ± 0.14
NC(=O)c1cccc2cn(-c3ccc([C@@H]4CCCNC4)cc3)nc12 [niraparib] | -0.00126 ± 0.00038
Cc1cc(Nc2ncnc3ccc(NC4=NC(C)(C)CO4)cc23)ccc1Oc1ccn2ncnc2c1 [tucatinib] | 0.00612 ± 0.0018
CCN(c1cc(C#CCN2CCOCC2)cc(C(=O)NCc2c(C)cc(C)[nH]c2=O)c1C)[C@H]1CC[C@H](N(C)CCOC)CC1 | 1.29 ± 0.23

Same assay, conditions: 625 fM

Structure (SMILES) | CTG-3D luminescence at 96 h
NC1(C(=O)N[C@@H](CCO)c2ccc(Cl)cc2)CCN(c2nc[nH]c3nccc2-3)CC1 [capivasertib] | 1.73 ± 0.28
CC(C)n1nc(-c2ccc3oc(N)nc3c2)c2c(N)ncnc21 [sapanisertib] | 1.56 ± 0.13
O=C(c1ccc(F)c(F)c1Nc1ccc(I)cc1F)N1CC(O)([C@@H]2CCCCN2)C1 [cobimetinib] | 1.63 ± 0.37
C[C@H](NC(=O)CCC(F)(F)F)C(=O)N[C@@H]1C(=O)N(CCO)c2ncccc2-c2ccccc21 [crenigacestat] | 1.47 ± 0.27
Cc1cc(Nc2ncc(Cl)c(Nc3ccccc3S(=O)(=O)C(C)C)n2)c(OC(C)C)cc1C1CCNCC1 [ceritinib] | 1.97 ± 0.61
CS(=O)(=O)c1ccc(C(=O)Nc2ccc(Cl)c(-c3ccccn3)c2)c(Cl)c1 [vismodegib] | 1.47 ± 0.14
